{"source": "patent US11148999B2", "about": "“Nitric oxide donors” (MedChem Partners, LLC, priority 2016, dated 2021)", "data": [{"tested_on": "not listed separately", "test": "Stability of the pure compound on storage", "assay_type": "physicochemical", "conditions": "not given", "values": [{"smiles": "CCCCCCCCCCC(=O)OCO/N=[N+](\\[O-])N(CC)CC", "note": "[Compound 506-3-111, (Z)-3,3-diethyl-1-((undecanoyloxy)methoxy)triaz-1-ene 2-oxide]", "stability of the pure compound": "stable for over one year"}]}, {"tested_on": "diabetic Lep/r-db/db mice", "test": "Initial dose range wound healing study, murine diabetic wound model, PVA gel", "assay_type": "in vivo", "conditions": "PVA gel with 10, 50, 100 uM test article versus PVA gel alone, applied twice a day, day 7, 1-cm^2 full-thickness wound", "description": "(§1) A murine diabetic wound model for utilized to test the ability of the gel formulation of the invention to accelerate wound healing. Specifically, diabetic Lep/r-db/db mice were used to study the effects of the gel formulation on granulation tissue thickness, density of α-smooth muscle actin-positive myofibroblasts, wound healing kinetics, blood vessel density, cell proliferation, and tissue ingrowth.\n(§2) An initial dose range study was performed to study the effects of the compounds of the invention on wound healing. Five homozygous diabetic 8-12 weeks old, Lep/r-db/db male mice (strain C57BL/KsJ-Leprdb) were anesthetized with 60 mg/kg pentobarbital and disinfected with 70% alcohol. Subsequently, a 1-cm^2 full-thickness wound was excised on the dorsa of the mice. The mice were then treated with either PVA gel containing no test article (Control), PVA gel containing test article (i.e., compound 506-3-111) at 10 uM concentration, PVA gel containing test article at 50 uM concentration, or PVA gel containing test article at 100 uM concentration. Immediately after wounding, the experimental groups had the NO releasing gel material applied to the wound twice a day and the control group had only the un-medicated gel applied to the wound. Dressing changes were performed twice daily. […]", "values": [{"smiles": "CCCCCCCCCCC(=O)OCO/N=[N+](\\[O-])N(CC)CC", "note": "[Compound 506-3-111, (Z)-3,3-diethyl-1-((undecanoyloxy)methoxy)triaz-1-ene 2-oxide]", "wound size": "clear dose dependent reduction in wound size"}]}, {"tested_on": "diabetic Lep/r-db/db mice", "test": "Initial dose range wound healing study, murine diabetic wound model, PVA gel", "assay_type": "in vivo", "conditions": "PVA gel, 10 to 100 uM, topical twice a day, 7 days", "description": "as §1, §2", "values": [{"smiles": "CCCCCCCCCCC(=O)OCO/N=[N+](\\[O-])N(CC)CC", "note": "[Compound 506-3-111, (Z)-3,3-diethyl-1-((undecanoyloxy)methoxy)triaz-1-ene 2-oxide]", "tolerability (adverse effects or toxicity)": "well tolerated with no adverse effects or toxicity even at the highest dose"}]}, {"tested_on": "not listed separately", "test": "NO release in PBS versus rat plasma (Griess reaction)", "assay_type": "in vitro ADME", "conditions": "100 μM in PBS versus rat plasma, 37° C., readings at 0 minutes, 30 minutes, 3 hours; classified and ranked on NO release behavior", "description": "The compounds were dissolved in DMSO and added to PBS and then incubated at 37° C. NO release was measured using the Griess reaction at t=0, 30 minutes, and 3 hours. NO production in this assay was an indication of the hydrolytic instability of the capping group. […] Compounds were dissolved in DMSO and added to rat plasma and then incubated at 37° C. NO release was measured using the Griess reaction at t=0, 30 minutes, and 3 hours. Differences in the amount and rate of NO release reflect the kinetics of hydrolysis of the capping groups by proteases endogenous to the rat plasma. This experiment reflected the ability of compounds to release NO in vivo. For both panels A and B, the compounds tested are labelled as: 506-3-91 is Compound 31, 506-3-159 is Compound 33, 506-3-123 is Compound 32, 506-3-149 is Compound 30, 506-3-117 is Compound 26506-3-121 is Compound 29, 506-3-153 is Compound 27, 506-3-151 is Compound 28, 506-3-145 is Compound 7, 506-3-93 is Compound 10, 506-3-113 is Compound 4, 506-3-111 is Compound 11, 506-3-133 is Compound 12, 506-3-131 is Compound 13, 506-3-81 is Compound 14, 506-3-103 is Compound 18, 506-3-157 is Compound 19, 506-3-115 is Compound 9, 506-3-143 is Compound 6, and 506-3-147 is Compound 8. For all compounds, three time points are shown (left to right for each labelled compound): 0 time point, 30 minutes time point, and 3 hours time point.\nCompounds were tested for release of NO in PBS versus rat plasma using the Griess reaction. The Griess reaction works by the colorimetric measurement of nitrite levels which is the primary breakdown product of NO. To determine stability, as well as NO release behavior in a biological environment, the compounds were tested for NO release in both PBS and rat plasma at 37° C. […]\nAdditional experiments were carried out to test the NO release capability of 100 μM of the compounds in PBS versus Rat Plasma. In these experiments, NO release kinetics was explored by taking readings at 0 minutes, 30 minutes, and 3 hours. The results are shown in FIG. 2, panels A and B. From these studies, the compounds were classified and ranked based on their NO release behavior as shown in the Table below.", "values": [{"smiles": "CCN(CC)/[N+]([O-])=N/OCN1C(=O)c2ccccc2C1=O", "note": "[Compound 506-3-81, (Z)-1-((1,3-dioxoisoindolin-2-yl)methoxy)-3,3-diethyltriaz-1-ene 2-oxide]", "Release Behavior": "unstable"}, {"smiles": "O=C1c2ccccc2C(=O)N1CO/N=[N+](\\[O-])N1CCCC1CO", "note": "(stereo not shown) [Compound 506-3-91, (Z)-2-((1,3-dioxoisoindolin-2-yl)methoxy)-1-(2-(hydroxymethyl)pyrrolidin-1-yl)diazene oxide]", "Release Behavior": "unstable"}, {"smiles": "CCN(CC)/[N+]([O-])=N/OCOC(=O)C(C)(C)NC(=O)OC(C)(C)C", "note": "[Compound 506-3-93, (Z)-3-ethyl-10,10,14,14-tetramethyl-9,12-dioxo-6,8,13-trioxa-3,4,5,11-tetraazapentadec-4-ene 4-oxide]", "Release Behavior": "slow/low release"}, {"smiles": "CCN(CC)/[N+]([O-])=N/OCSC", "note": "[Compound 506-3-103, (Z)-3,3-diethyl-1-((methylthio)methoxy)triaz-1-ene 2-oxide]", "Release Behavior": "slow/low release"}, {"smiles": "CCCCCCCCCCC(=O)OCO/N=[N+](\\[O-])N(CC)CC", "note": "[Compound 506-3-111, (Z)-3,3-diethyl-1-((undecanoyloxy)methoxy)triaz-1-ene 2-oxide]", "Release Behavior": "quick/long release"}, {"smiles": "CCN(CC)/[N+]([O-])=N/OCOC(=O)[C@@H](NC(=O)OC(C)(C)C)C(C)C", "note": "[Compound 506-3-113, (S,Z)-3-ethyl-10-isopropyl-14,14-dimethyl-9,12-dioxo-6,8,13-trioxa-3,4,5,11-tetraazapentadec-4-ene 4-oxide]", "Release Behavior": "slow onset"}, {"smiles": "CCC(CC)C(=O)OCO/N=[N+](\\[O-])N(CC)CC", "note": "[Compound 506-3-115, (Z)-3,3-diethyl-1-(((2-ethylbutanoyl)oxy)methoxy)triaz-1-ene 2-oxide]", "Release Behavior": "slow onset"}, {"smiles": "CC(C)(C)C(=O)OCO/N=[N+](\\[O-])N1CCCC1CO", "note": "(stereo not shown) [Compound 506-3-117, (Z)-1-(2-(hydroxymethyl)pyrrolidin-1-yl)-2-((pivaloyloxy)methoxy)diazene oxide]", "Release Behavior": "steady"}, {"smiles": "CC(C)OC(=O)OCO/N=[N+](\\[O-])N1CCCC1CO", "note": "(stereo not shown) [Compound 506-3-121, (Z)-1-(2-(hydroxymethyl)pyrrolidin-1-yl)-2-(((isopropoxycarbonyl)oxy)methoxy)diazene oxide]", "Release Behavior": "slow/low release"}, {"smiles": "CSCO/N=[N+](\\[O-])N1CCCC1CO", "note": "(stereo not shown) [Compound 506-3-123, (Z)-1-(2-(hydroxymethyl)pyrrolidin-1-yl)-2-((methylthio)methoxy)diazene oxide]", "Release Behavior": "slow/low release"}, {"smiles": "CCN(CC)/[N+]([O-])=N/OC(C)OC(=O)OC(C)C", "note": "(stereo not shown) [Compound 506-3-131, (Z)-3-ethyl-7,11-dimethyl-9-oxo-6,8,10-trioxa-3,4,5-triazadodec-4-ene 4-oxide]", "Release Behavior": "steady/low"}, {"smiles": "CCN(CC)/[N+]([O-])=N/OC(C)OC(=O)OC(C)(C)C", "note": "(stereo not shown) [Compound 506-3-133, (Z)-3-ethyl-7,11,11-trimethyl-9-oxo-6,8,10-trioxa-3,4,5-triazadodec-4-ene 4-oxide]", "Release Behavior": "unstable"}, {"smiles": "CCCC(=O)OCO/N=[N+](\\[O-])N(CC)CC", "note": "[Compound 506-3-143, (Z)-1-((butyryloxy)methoxy)-3,3-diethyltriaz-1-ene 2-oxide]", "Release Behavior": "intermediate"}, {"smiles": "CCN(CC)/[N+]([O-])=N/OCOC(=O)c1ccccc1", "note": "[Compound 506-3-145, (Z)-1-((benzoyloxy)methoxy)-3,3-diethyltriaz-1-ene 2-oxide]", "Release Behavior": "steady"}, {"smiles": "CCC(CC)C(=O)OCO/N=[N+](\\[O-])N1CCCC1CO", "note": "(stereo not shown) [Compound 506-3-149, (Z)-2-(((2-ethylbutanoyl)oxy)methoxy)-1-(2-(hydroxymethyl)pyrrolidin-1-yl)diazene oxide]", "Release Behavior": "slow onset"}, {"smiles": "O=C(OCO/N=[N+](\\[O-])N1CCCC1CO)c1ccccc1", "note": "(stereo not shown) [Compound 506-3-151, (Z)-2-((benzoyloxy)methoxy)-1-(2-(hydroxymethyl)pyrrolidin-1-yl)diazene oxide]", "Release Behavior": "slow onset"}, {"smiles": "CCCC(=O)OCO/N=[N+](\\[O-])N1CCCC1CO", "note": "(stereo not shown) [Compound 506-3-153, (Z)-2-((butyryloxy)methoxy)-1-(2-(hydroxymethyl)pyrrolidin-1-yl)diazene oxide]", "Release Behavior": "steady/low"}, {"smiles": "CCN(CC)/[N+]([O-])=N/OC[S+](C)[O-]", "note": "(stereo not shown) [Compound 506-3-157, (Z)-3,3-diethyl-1-((methylsulfinyl)methoxy)triaz-1-ene 2-oxide]", "Release Behavior": "slow/low release"}, {"smiles": "C[S+]([O-])CO/N=[N+](\\[O-])N1CCCC1CO", "note": "(stereo not shown) [Compound 506-3-159, (Z)-1-(2-(hydroxymethyl)pyrrolidin-1-yl)-2-((methylsulfinyl)methoxy)diazene oxide]", "Release Behavior": "slow/low release"}]}]}
